Assay results published in article PMC6277767, “Broad and Region-Specific Impacts of the Synthetic Cannabinoid CP 55,940 in Adolescent and Adult Female Mouse Brains” (Frontiers in Molecular Neuroscience, 2018).

System: CD1 female mouse brain lipidome
Experiment: Brain-region lipid levels (HPLC/MS/MS lipidomics) 2 h after single i.p. 3 mg/kg CP 55,940 vs vehicle
Assay type: in vivo
Method: The Bloomington Institutional Animal Care and Use Committee of Indiana University reviewed and approved the animal procedures. Female mice from the CD1 strain were utilized to match our study examining THC’s effects on the brain lipidome ([Leishman et al., 2018]). Mice were given a single i.p. injection of either 3 mg/kg CP or 1:1:18 cremophor:ethanol:saline vehicle (please refer to the section “3 mg/kg CP Is Relevant for Synthetic Cannabinoid Abuse and Has Stronger Effects on the Female Mouse Brain Lipidome During Adolescence” for a justification of dose and use of female mice). Three different age groups were given injections: PND 35 and PND 50 adolescents, and adult mice (PND 113). At least eight mice in each age group received CP and at least eight received vehicle. Matching the THC study time course ([Leishman et al., 2018]), mice were sacrificed via rapid decapitation 2 h after injection. Brains were immediately removed and flash-frozen in liquid nitrogen, and then stored at -80°C until dissections were performed. Brains were dissected on an ice-cold dissection plate into the following regions: STR, HIPP, CER, THAL, CTX, HYP, MID, and STEM. These abbreviations for these brain areas will be used exclusively when discussing the results generated by these specific dissections. Each dissected area was immediately placed in liquid nitrogen and then stored at -80°C until used for lipid extraction.
Tissue extracts were performed as previously described ([Bradshaw et al., 2006]; [Stuart et al., 2013]; [Raboune et al., 2014]; [Leishman et al., 2016a],[b], [2017], [2018]). First, samples were shock frozen in liquid nitrogen, weighed, and transferred to a centrifuge tube. The mass of the largest sample was multiplied by 50 to determine how many milliliters of HPLC-grade methanol (Fisher, Fair Lawn, NJ, United States) to add. Then, samples were spiked with 500 pmol deuterium-labeled NAGly (d8NAGly; Cayman Chemical, Ann Arbor, MI, United States). Samples were placed on ice in darkness for 2 h then individually homogenized and centrifuged at 19,000 × g for 20 min at 20°C. Supernatants were diluted with HPLC water (purified in house) to make a solution of 75% water, 25% supernatant. Lipids were partially purified on C18 solid phase extraction columns (Agilent, Palo Alto, CA, United States). A series of four elutions with 1.5 mL of 60%, 75%, 85%, and 100% methanol were collected ([Stuart et al., 2013]; [Leishman et al., 2016a],[b], [2018]).
As previously described ([Bradshaw et al., 2006]; [Tan et al., 2006]; [Smoum et al., 2010]; [Stuart et al., 2013]; [Tortoriello et al., 2013]; [Raboune et al., 2014]; [Leishman et al., 2016a],[b], [2017], [2018]), samples were analyzed using an Applied Biosystems API 3000 triple quadrupole mass spectrometer with electrospray ionization (Foster City, CA, United States). Using an Agilent XDB-C18 reversed phase analytical column and optimized mobile phase gradients, 20 μL from each elution were chromatographed. Two Shimadzu 10ADvp pumps (Columbia, MD, United States) provided the pressure for gradient elution. Mobile phase A: 20% methanol, 80% water (v/v) and 1 mM ammonium acetate (Sigma, St. Louis, MO, United States). Mobile phase B: 100% methanol, 1 mM ammonium acetate. Every method run began with 0% mobile phase B, reached 100% mobile phase B flowing at 0.2 mL/min, and gradually returned to 0% mobile phase B.
This screening library will be referred to as the lipidome when discussing data from this study. HPLC/MS/MS data were analyzed using Analyst software (Applied Biosystems) ([Bradshaw et al., 2006]; [Tan et al., 2006]; [Stuart et al., 2013]; [Tortoriello et al., 2013]; [Raboune et al., 2014]; [Leishman et al., 2016a],[b], [2017], [2018]). Chromatograms (Supplementary Figure 3) were generated by determining the retention time of analytes from the analytical column with a [M-1] or [M+1] parent peak and a fragmentation peak corresponding to the programmed values. […]

**Q.** For `CCCCCCC(C)(C)c1ccc([C@@H]2C[C@H](O)CC[C@H]2CCCO)c(O)c1` [CP 55,940], which “PGF2α level vs vehicle” value (PND 35 HIPP) is on record?
**A.** ↑ (1-1.49 times higher than vehicle)

**Q.** And the “number of lipids changed” value (PND 35 HIPP, 65 detected)?
**A.** 39

**Q.** What about the “2-arachidonoyl glycerol level vs vehicle” value (PND 35 HYP) of the same compound?
**A.** ↓↓↓ (2-2.99 times lower than vehicle)

**Q.** What about the “2-linoleoyl glycerol level vs vehicle” value (PND 35 HYP) of the same compound?
**A.** ↓↓ (1.50-1.99 times lower than vehicle)

**Q.** What about the “2-oleoyl glycerol level vs vehicle” value (PND 35 HYP) of the same compound?
**A.** ↓↓ (1.50-1.99 times lower than vehicle)

**Q.** What about the “2-palmitoyl glycerol level vs vehicle” value (PND 35 HYP) of the same compound?
**A.** ↑ (1-1.49 times higher than vehicle)

**Q.** And the “Arachidonic acid level vs vehicle” value (PND 35 HYP)?
**A.** ↓ (1-1.49 times lower than vehicle)

**Q.** What about the “Linoleic acid level vs vehicle” value (PND 35 HYP) of the same compound?
**A.** ↓ (1-1.49 times lower than vehicle)

**Q.** What about the “N-arachidonoyl GABA level vs vehicle” value (PND 35 HYP) of the same compound?
**A.** ↓ (1-1.49 times lower than vehicle)

**Q.** And the “N-arachidonoyl alanine level vs vehicle” value (PND 35 HYP)?
**A.** ↓↓ (1.50-1.99 times lower than vehicle)

**Q.** And the “N-arachidonoyl ethanolamine level vs vehicle” value (PND 35 HYP)?
**A.** ↓ (1-1.49 times lower than vehicle)

**Q.** What about the “N-arachidonoyl glycine level vs vehicle” value (PND 35 HYP) of the same compound?
**A.** ↓ (1-1.49 times lower than vehicle)

**Q.** And the “N-arachidonoyl phenylalanine level vs vehicle” value (PND 35 HYP)?
**A.** ↓ (1-1.49 times lower than vehicle)

**Q.** And the “N-arachidonoyl taurine level vs vehicle” value (PND 35 HYP)?
**A.** ↓ (1-1.49 times lower than vehicle)

**Q.** What about the “N-docosahexaenoyl GABA level vs vehicle” value (PND 35 HYP) of the same compound?
**A.** ↓ (1-1.49 times lower than vehicle)

**Q.** And the “N-docosahexaenoyl ethanolamine level vs vehicle” value (PND 35 HYP)?
**A.** ↓↓ (1.50-1.99 times lower than vehicle)

**Q.** What about the “N-linoleoyl alanine level vs vehicle” value (PND 35 HYP) of the same compound?
**A.** ↓ (1-1.49 times lower than vehicle)

**Q.** And the “N-oleoyl GABA level vs vehicle” value (PND 35 HYP)?
**A.** ↓ (1-1.49 times lower than vehicle)

**Q.** What about the “N-oleoyl alanine level vs vehicle” value (PND 35 HYP) of the same compound?
**A.** ↓ (1-1.49 times lower than vehicle)

**Q.** What about the “N-oleoyl ethanolamine level vs vehicle” value (PND 35 HYP) of the same compound?
**A.** ↓↓ (1.50-1.99 times lower than vehicle)

**Q.** And the “N-palmitoyl ethanolamine level vs vehicle” value (PND 35 HYP)?
**A.** ↓↓ (1.50-1.99 times lower than vehicle)

**Q.** What about the “N-palmitoyl leucine level vs vehicle” value (PND 35 HYP) of the same compound?
**A.** ↑ (1-1.49 times higher than vehicle)

**Q.** What about the “N-stearoyl ethanolamine level vs vehicle” value (PND 35 HYP) of the same compound?
**A.** ↓ (1-1.49 times lower than vehicle)

**Q.** What about the “Oleic Acid level vs vehicle” value (PND 35 HYP) of the same compound?
**A.** ↓ (1-1.49 times lower than vehicle)

**Q.** And the “PGE2 level vs vehicle” value (PND 35 HYP)?
**A.** ↓ (1-1.49 times lower than vehicle)

**Q.** And the “PGF2α level vs vehicle” value (PND 35 HYP)?
**A.** ↑ (1-1.49 times higher than vehicle)

**Q.** What about the “phosphoLEA level vs vehicle” value (PND 35 HYP) of the same compound?
**A.** ↑ (1-1.49 times higher than vehicle)

**Q.** And the “2-linoleoyl glycerol level vs vehicle” value (PND 35 MID)?
**A.** ↓ (1-1.49 times lower than vehicle)

**Q.** What about the “6-ketoPGF1α level vs vehicle” value (PND 35 MID) of the same compound?
**A.** ↓ (1-1.49 times lower than vehicle)

**Q.** And the “Arachidonic acid level vs vehicle” value (PND 35 MID)?
**A.** ↓ (1-1.49 times lower than vehicle)

**Q.** And the “N- stearoyl valine level vs vehicle” value (PND 35 MID)?
**A.** ↑ (1-1.49 times higher than vehicle)

**Q.** What about the “N-arachidonoyl GABA level vs vehicle” value (PND 35 MID) of the same compound?
**A.** ↓ (1-1.49 times lower than vehicle)

**Q.** What about the “N-arachidonoyl alanine level vs vehicle” value (PND 35 MID) of the same compound?
**A.** ↓ (1-1.49 times lower than vehicle)

**Q.** What about the “N-arachidonoyl glycine level vs vehicle” value (PND 35 MID) of the same compound?
**A.** ↓ (1-1.49 times lower than vehicle)

**Q.** What about the “N-arachidonoyl serine level vs vehicle” value (PND 35 MID) of the same compound?
**A.** ↓ (1-1.49 times lower than vehicle)

**Q.** What about the “N-arachidonoyl taurine level vs vehicle” value (PND 35 MID) of the same compound?
**A.** ↓ (1-1.49 times lower than vehicle)

**Q.** What about the “N-arachidonoyl tyrosine level vs vehicle” value (PND 35 MID) of the same compound?
**A.** ↓ (1-1.49 times lower than vehicle)

**Q.** What about the “N-docosahexaenoyl GABA level vs vehicle” value (PND 35 MID) of the same compound?
**A.** ↓ (1-1.49 times lower than vehicle)

**Q.** And the “N-docosahexaenoyl alanine level vs vehicle” value (PND 35 MID)?
**A.** ↓ (1-1.49 times lower than vehicle)

**Q.** And the “N-docosahexaenoyl glycine level vs vehicle” value (PND 35 MID)?
**A.** ↓ (1-1.49 times lower than vehicle)

**Q.** What about the “N-docosahexaenoyl leucine level vs vehicle” value (PND 35 MID) of the same compound?
**A.** ↑ (1-1.49 times higher than vehicle)

**Q.** And the “N-docosahexaenoyl methionine level vs vehicle” value (PND 35 MID)?
**A.** ↓ (1-1.49 times lower than vehicle)

**Q.** What about the “N-docosahexaenoyl serine level vs vehicle” value (PND 35 MID) of the same compound?
**A.** ↓ (1-1.49 times lower than vehicle)

**Q.** And the “N-docosahexaenoyl tyrosine level vs vehicle” value (PND 35 MID)?
**A.** ↓ (1-1.49 times lower than vehicle)

**Q.** And the “N-docosahexaenoyl valine level vs vehicle” value (PND 35 MID)?
**A.** ↑↑ (1.50-1.99 times higher than vehicle)

**Q.** What about the “N-linoleoyl ethanolamine level vs vehicle” value (PND 35 MID) of the same compound?
**A.** ↑ (1-1.49 times higher than vehicle)

**Q.** What about the “N-oleoyl GABA level vs vehicle” value (PND 35 MID) of the same compound?
**A.** ↓ (1-1.49 times lower than vehicle)

**Q.** What about the “N-oleoyl ethanolamine level vs vehicle” value (PND 35 MID) of the same compound?
**A.** ↓ (1-1.49 times lower than vehicle)

**Q.** What about the “N-oleoyl phenylalanine level vs vehicle” value (PND 35 MID) of the same compound?
**A.** ↑ (1-1.49 times higher than vehicle)

**Q.** What about the “N-oleoyl valine level vs vehicle” value (PND 35 MID) of the same compound?
**A.** ↑ (1-1.49 times higher than vehicle)

**Q.** And the “N-palmitoyl leucine level vs vehicle” value (PND 35 MID)?
**A.** ↑ (1-1.49 times higher than vehicle)
